Experiments:
[1] = target: “AT-hook” peptide 3 (ATHP3) (Homo sapiens, UniProt P52926); assay: Isothermal titration calorimetry (ITC), titration into ATHP3; type: binding
Protocol: ITC experiments were conducted using a VP-ITC titration calorimeter (MicroCal, Inc., Northampton, MA) interfaced to a PC. Origin 7.0, supplied by the manufacturer was used for data acquisition. […] The heat liberated or absorbed is observed as a peak corresponding to the power required keeping the sample and reference cells at identical temperatures. The peak produced during the injection is converted to heat output by integration and corrected for cell volume and sample concentration. […] The net enthalpy for the titration reaction was determined by subtraction of the component heats of dilution.

BTSC#30p [2] = assay: Growth curves (CellTiter), BTSC#30p; type: cell-based; conditions: up to 200 μM
Protocol: BTSC#83 and BTSC#30p and their culture conditions have been described. For growth curves, suspension cultures were mechanically disaggregated and filtered through 37 µm filters (StemCell Technologies, Vancouver, Canada) in order to obtain bona fide single-cell suspension. […] Cell growth was assayed at the indicated time using the CellTiter Assay System (Promega). The growth conditions of 8505c anaplastic thyroid carcinoma cells and mouse Embryonic Fibroblasts (MEFs) knock-out for HMGA1, HMGA2, and HMGA1/A2 double mutant have been described previously[42],[64]. P values were calculated by using two-way ANOVA followed by Sidak’s multiple comparison test.

BTSC#83 = assay: Western blotting and qRT-PCR expression analysis, BTSC#83; type: cell-based
Protocol: (§1) The single-cell suspension was obtained by mechanical disaggregation of the spheres and total proteins were extracted 48 h later, as previously described. After separation by SDS–polyacrylamide gel electrophoresis, proteins were blotted on nitrocellulose membranes (GE Healthcare Europe Gmb) and hybridized with the following antibodies: anti-HMGA1, anti-HMGA2 (Genetex) or affinity-purified anti-HMGA2, anti-α-actin (SantaCruz Biotechnologies). The single-cell suspension was obtained by mechanical disaggregation of the spheres and RNA was extracted 48 h later, by using Direct-zol RNA MiniPrep (Zymo Research). One μg of RNA was retrotranscribed, by using QuantiTect® Reverse Transcription Kit (Qiagen) and qRT-PCR was performed as described. The 2^–ΔΔCt formula was used to calculate the differential gene expression.

BTSC#30p [3] = assay: Western blotting and qRT-PCR expression analysis, BTSC#30p; type: cell-based
Protocol: as §1

Which “− TΔS” value [1] does the source give for `Cc1ccc(C(=O)Nc2ccc(S(=O)(=O)O)c3cc(S(=O)(=O)O)cc(S(=O)(=O)O)c23)cc1NC(=O)c1cccc(NC(=O)Nc2cccc(C(=O)Nc3cc(C(=O)Nc4ccc(S(=O)(=O)O)c5cc(S(=O)(=O)O)cc(S(=O)(=O)O)c45)ccc3C)c2)c1` [suramin] here?
Its value is 6.75 kcal/mol.

What about the Kd ([1]; first line, read-out: ATHP3 Ka (M^−1) (converted)) of the same molecule?
Its Kd is 24.6 nM.

What about the “ATHP3 Binding site” value ([1]; number of sites, first line) of the same molecule?
Its value is 0.98.

What about the cell growth (BTSC#30p [2]) of the same molecule?
The cell growth was “did not significantly affect the cell growth”.

What about the “expression of HMGA1” value (BTSC#83; Western blotting and qRT-PCR) of the same molecule?
The value was “slightly reduced”.

What about the “expression of HMGA2” value (BTSC#83; Western blotting and qRT-PCR) of the same molecule?
The value was “slightly reduced”.

And the “expression of SNAIL” value (BTSC#83; qRT-PCR, 100 µM for 48 h)?
Its value is “significantly reduced”.

What about the ID2 expression (BTSC#30p [3]; 100 μM for 48 h) of the same molecule?
The ID2 expression was “induces reduction in ID2 expression”.

What about the “expression of HMGA1” value (BTSC#30p [3]; Western blotting and qRT-PCR) of the same molecule?
The value was “slightly reduced”.

What about the “expression of HMGA2” value (BTSC#30p [3]; Western blotting and qRT-PCR) of the same molecule?
The value was “slightly reduced”.

What about the “expression of SNAIL” value (BTSC#30p [3]; qRT-PCR, 100 µM for 48 h) of the same molecule?
Its value is “significantly reduced”.

And the “expression of ID2” value (BTSC#30p [3]; qRT-PCR, 100 µM for 9 days)?
The value was “significantly reduced”.

What about the “expression of MSI1” value (BTSC#30p [3]; qRT-PCR, 100 µM for 9 days) of the same molecule?
The value was “significantly reduced”.

What about the “expression of OLIG2” value (BTSC#30p [3]; qRT-PCR, 100 µM for 9 days) of the same molecule?
The value was “increased”.

Reference: PMC7606612, “Identification of HMGA2 inhibitors by AlphaScreen-based ultra-high-throughput screening assays” (Scientific Reports, 2020)
